Target: T1, BACE1 enzyme (Homo sapiens, UniProt P56817)
T1 construct: The HEK293-9B.A1 cell line, which overexpresses the BACE1 enzyme, was derived from HEK293 cells; endogenous in cells; washed 48,000 x g membrane pellet / cell homogenate
Assay: Radioligand displacement assay with a radiolabeled BACE inhibitor on HEK293-9B.A1 cell homogenate
Type: binding
Conditions: displacement of 1 nM tritiated radioligand, HEK293-9B.A1 homogenate, pH 5.0, 1.5 hr at 25° C.; read-out: Activity Rating (based on IC50 values)
Description: There are a number of methods by which inhibitors of the BACE enzyme can be identified experimentally. The enzyme can be obtained from membrane samples from natural tissues or cultured cells or can be expressed recombinantly in a host cell by well known methods of molecular biology. The whole enzyme or a portion thereof can be expressed, for example, in bacterial, insect or mammalian cells to obtain a catalytically active enzyme species. The enzymatic activity and/or ligand binding capability of the enzyme can be assessed within these membrane samples, or the enzyme can be purified to varying extents. As an illustrative example, the nucleic acid sequence encoding the pro and catalytic domains of human BACE can be appended on the 5′ end with an untranslated and signal sequence from the gene for acetylcholinesterase, and on the 3′ end with a sequence encoding a poly-histidine tag. This cDNA can then be expressed in Drosophila melanogaster S2 cells in which the signal and pro sequences of the transcribed/translated protein are removed by cellular proteases and the catalytic domain, appended by a C-terminal poly-histidine tag, is secreted out into the cellular medium. The enzyme can then be purified from the culture medium by nickel affinity chromatography by methods well known to those trained in the art [Mallender, W. et al., (2001) “Characterization of recombinant, soluble beta-secretase from an insect cell expression system.” Mol. Pharmacol. 59: 619-626]. Similar strategies for expressing and purifying various forms of BACE in bacterial, mammalian and other cell types would be known to one skilled in the art. A preferred method for determining the potency of a test compound in binding to the BACE enzyme is by moitoring the displacement of a suitable radioligand.
Radioligand displacement assays with a radiolabeled BACE inhibitor (WO 2004 013098, compound 3, where the methoxy group is substituted for C(^3H)3) were carried out using standard methods (Keen, M. (1999) in Receptor Binding Techniques (Walker, J. M. ed) p. 106 Humana Press, Totowa, N.J.). The HEK293-9B.A1 cell line, which overexpresses the BACE1 enzyme, was derived from HEK293 cells (Simmons, N. L. (1990) A cultured human renal epithelioid cell line responsive to vasoactive intestinal peptide. Exp. Physiol. 75:309-19.) by RAGE™ (Harrington, J. J. et al. (2001) Creation of genome-wide protein expression libraries using random activation of gene expression. Nat. Biotechnol. 19:440-5; U.S. Pat. Nos. 6,410,266 and 6,361,972). T225 flask cultures of HEK293-9B.A1 were grown to 80% confluency in DMEM supplemented with 2 mM L-glutamine, 10 μg/ml penecillin, 10 μg/ml streptomycin, 3 μg/ml puromycin, 100 nM methotrexate, and 10% fetal bovine serum (Invitrogen, Carlsbad, Calif.), harvested, and resuspended at 2×10^8 cells per 10 ml of lysis buffer consisting of 50 mM HEPES pH 7.0 containing a protease inhibitor cocktail of AEBSF 104 μM, aprotinin 80 nM, leupeptin 2 μM, bestatin 4 μM, pepstatin A 1.5 μM, and E-64 1.4 μM (0.1% of protease inhibitor cocktail P8340, Sigma-Aldrich, St. Louis, Mo.) at 4° C. The resuspended cells were homogenized using a Polytron (Brinkman, Westbury, N.Y.) at setting 6 for 10 sec., then centrifuged at 48,000×g for 10 min. The resulting pellet was washed by repeating the resuspension, homogenization and centrifugation steps. […]

T1 sequence (P56817 46-501): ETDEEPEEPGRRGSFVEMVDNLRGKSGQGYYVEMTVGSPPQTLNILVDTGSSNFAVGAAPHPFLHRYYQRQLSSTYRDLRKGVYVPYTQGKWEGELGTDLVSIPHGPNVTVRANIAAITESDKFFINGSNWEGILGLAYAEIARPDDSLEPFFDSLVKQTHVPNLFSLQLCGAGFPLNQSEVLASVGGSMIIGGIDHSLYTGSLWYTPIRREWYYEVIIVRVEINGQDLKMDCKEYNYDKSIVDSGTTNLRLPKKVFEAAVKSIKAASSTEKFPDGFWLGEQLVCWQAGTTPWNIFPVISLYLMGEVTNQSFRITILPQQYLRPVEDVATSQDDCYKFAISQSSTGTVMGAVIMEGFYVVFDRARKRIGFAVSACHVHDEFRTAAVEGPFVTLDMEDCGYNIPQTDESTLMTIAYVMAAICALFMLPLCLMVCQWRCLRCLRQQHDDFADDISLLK

`CCCO[C@H]1CN[C@@H]([C@@H](O)[C@H](Cc2cc(F)cc(F)c2)NC(=O)[C@H](CCc2ccccc2)N2CC[C@](NC(C)=O)([C@@H](C)CC)C2=O)C1` (stereo in doubt) [Example 2, (S)-2-((R)-3-acetamido-3-secbutyl-2-oxopyrrolidin-1-yl)-N-((1R,2S)-3-(3,5-difluorophenyl)-1-hydroxy-1-((2R,4R)-4-propoxypyrrolidin-2-yl)propan-2-yl)-4-phenylbutanamide] and `CC[C@@H](C)[C@@]1(NC(C)=O)CCN([C@@H](CCc2ccccc2)C(=O)N[C@@H](Cc2cc(F)cc(F)c2)[C@H](O)[C@H]2C[C@H](O)CN2)C1=O` [Example 15, (S)-2-((S)-3-acetamido-3-((R)-sec-butyl)-2-oxopyrrolidin-1-yl)-N-((1R,2S)-3-(3,5-difluorophenyl)-1-hydroxy-1-((2R,4S)-4-hydroxypyrrolidin-2-yl)propan-2-yl)-4-phenylbutanamide] cannot be ordered by IC50: < 100 nM for the first, < 100 nM for the second.

`CCC(C)[C@@]1(NC(C)=O)CCN([C@@H](CCc2ccccc2)C(=O)N[C@@H](Cc2cc(F)cc(F)c2)[C@H](O)[C@H]2CCCCN2)C1=O` (stereo in doubt) [Example 8, (S)-2-((S)-3-acetamido-3-((R)-sec-butyl)-2-oxopyrrolidin-1-yl)-N-((1R,2S)-3-(3,5-difluorophenyl)-1-hydroxy-1-((R)-piperidin-2-yl)propan-2-yl)-4-phenylbutanamide] and `CCCS(=O)(=O)[C@H]1CN[C@@H]([C@@H](O)[C@H](Cc2ccccc2)NC(=O)[C@H](CCc2ccccc2)N2CC[C@](NC(C)=O)([C@H](C)CC)C2=O)C1` [Example 22, (S)-2-((S)-3-acetamido-3-((R)-sec-butyl)-2-oxopyrrolidin-1-yl)-N-((1R,2S)-1-hydroxy-3-phenyl-1-((2R,4R)-4-(propylsulfonyl)pyrrolidin-2-yl)propan-2-yl)-4-phenylbutanamide] cannot be ordered by IC50: < 100 nM for the first, < 100 nM for the second.

In the case of `CCCOC1CN[C@@H]([C@@H](O)C(Cc2cc(F)cc(F)c2)NC(=O)[C@H](C)N2CC[C@H](CC(C)C)C2=O)C1` (some centres unmarked) [Example 7], the IC50 is reported as 100 to 1000 nM.
